Reference: patent US7098218B2, “Steroidal compounds for inhibiting steroid sulphatase” (priority 2001, dated 2006)
“And” between values parts separate entries of the source, which are not always exact repeats. Identical values can stand only once.

How the values were obtained:
steroid sulphatase = target: T1, steroid sulphatase (Homo sapiens, UniProt P08842); details: cited from earlier work
T1 sequence (P08842 22-583): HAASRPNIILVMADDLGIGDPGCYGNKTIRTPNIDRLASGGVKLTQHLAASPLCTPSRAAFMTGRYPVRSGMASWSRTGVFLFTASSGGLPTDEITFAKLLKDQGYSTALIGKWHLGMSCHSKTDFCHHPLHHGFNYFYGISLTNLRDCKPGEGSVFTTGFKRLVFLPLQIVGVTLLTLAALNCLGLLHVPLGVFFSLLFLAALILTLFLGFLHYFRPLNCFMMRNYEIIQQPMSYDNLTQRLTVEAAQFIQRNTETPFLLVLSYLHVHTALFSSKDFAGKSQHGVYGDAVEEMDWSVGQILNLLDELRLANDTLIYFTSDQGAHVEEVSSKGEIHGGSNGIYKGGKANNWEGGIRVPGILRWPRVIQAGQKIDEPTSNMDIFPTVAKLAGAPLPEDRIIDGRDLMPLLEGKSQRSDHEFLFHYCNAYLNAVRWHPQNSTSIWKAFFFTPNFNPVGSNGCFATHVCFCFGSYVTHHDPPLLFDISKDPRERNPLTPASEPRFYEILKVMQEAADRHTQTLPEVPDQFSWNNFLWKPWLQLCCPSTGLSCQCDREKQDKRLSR

STS = target: T2, STS (Homo sapiens, UniProt P08842); assay: biochemical
T2 construct: can be assessed using either intact MCF-7 breast cancer cells or placental microsomes
T2 sequence (P08842 22-583): T1 sequence (P08842 22-583)

[1] = target: T3, E1-STS in intact MCF-7 cells (Homo sapiens, UniProt P08842); design: dose or concentration left out as unconfirmed; details: cited from earlier work
T3 construct: endogenous in cells; host or cells: MCF-7 human breast cancer cells
T3 sequence (P08842 22-583): T1 sequence (P08842 22-583)

[2] = target: T4, human placental steroid sulphatase (Homo sapiens, UniProt P08842); assay: Inhibition of oestrone sulphatase activity in human placental microsomes; format: biochemical
T4 construct: Placental microsomes (100000 g fraction) were prepared from a positive-positive human placenta from a normal-term pregnancy; from tissue; host or cells: human placenta, microsomal fraction
T4 sequence (P08842 22-583): T1 sequence (P08842 22-583)

[3] = tested on: rats (uterotrophic activity); details: cited from earlier work
breast tumour cells = details: cited from earlier work
[4] = tested on: ovariectomised rats (uterine growth); assay: In vivo oestrogenicity, uterine growth in ovariectomised rats (Protocol 4); design: species or system rat; details: 10 mg/Kg/day for five days orally, uterine weight
Protocol: The compounds of the present invention may be studied using an animal model, in particular in ovariectomised rats. In this model, compounds which are oestrogenic stimulate uterine growth.
The compound (10 mg/Kg day for five days) was administered orally to rats with another group of animals receiving vehicle only (propylene glycol). A further group received the estrogenic compound EMATE subcutaneously in an amount of […] for five days. At the end of the study uteri were obtained and weighed with the results being expressed as uterine weight/whole body weight×100.

rat liver STS = target: T5, rat liver STS (Rattus norvegicus, UniProt P15589); assay: Inhibition of oestrone sulphatase activity in vivo, rat liver (Protocol 3); details: rats; 10 mg/Kg/day for five days orally
T5 construct: samples of liver tissue were obtained and oestrone sulphatase activity assayed; from tissue; host or cells: rat liver
T5 sequence (P15589 20-577): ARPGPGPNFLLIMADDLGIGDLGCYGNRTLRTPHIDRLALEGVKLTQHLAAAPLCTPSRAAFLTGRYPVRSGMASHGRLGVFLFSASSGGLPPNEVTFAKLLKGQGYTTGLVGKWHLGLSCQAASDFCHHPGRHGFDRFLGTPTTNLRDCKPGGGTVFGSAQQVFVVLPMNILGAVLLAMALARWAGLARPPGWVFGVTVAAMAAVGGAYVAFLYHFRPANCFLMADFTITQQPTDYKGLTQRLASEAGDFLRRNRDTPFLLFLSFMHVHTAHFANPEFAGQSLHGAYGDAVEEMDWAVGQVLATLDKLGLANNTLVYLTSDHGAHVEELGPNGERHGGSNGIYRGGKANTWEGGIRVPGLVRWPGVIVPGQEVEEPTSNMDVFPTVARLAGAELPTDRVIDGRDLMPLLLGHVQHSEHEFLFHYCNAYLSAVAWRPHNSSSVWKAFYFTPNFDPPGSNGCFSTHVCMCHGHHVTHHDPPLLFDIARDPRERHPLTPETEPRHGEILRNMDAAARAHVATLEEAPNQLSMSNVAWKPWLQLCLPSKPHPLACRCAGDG
Protocol: The compounds of the present invention may be studied using an animal model, in particular in ovariectomised rats. In this model compounds which are oestrogenic stimulate uterine growth.
The compound (10 mg/Kg/day for five days) was administered orally to rats with another group of animals receiving vehicle only (propylene glycol). A further group received the compound EMATE subcutaneously in an amount of 10 μg/day for five days. At the end of the study samples of liver tissue were obtained and oestrone sulphatase activity assayed using 3 H oestrone sulphate as the substrate as previously described (see PCT/GB95/02638).

[5] = read-out: Mean % Inhibition ± SD

NS(=O)(=O)Oc1ccc2c3c(c(=O)oc2c1)CCCCC3 [667 Coumate, reference compound]
times more potent than EMATE in vitro (steroid sulphatase): ~3 times
667 Coumate value: % Inhibition (STS; 0.005 µM): 5 nM = 63%Inhibition and 5 nM = 56%Inhibition
inhibition at 0.005 µM (STS; read-out: 667 Coumate value: % Inhibition): 63%

C[C@]12CC[C@@H]3c4ccc(OS(N)(=O)=O)cc4CC[C@H]3[C@@H]1CCC2=O [EMATE, estrone-3-O-sulfamate]
inhibition of E1-STS activity [1]: more than 99%
IC50 [2]: 8 nM
oral uterotrophic activity, times higher than that of oestradiol [3]: 100 times

C[C@]12CC[C@@H]3c4ccc(O)cc4CC[C@H]3[C@@H]1CC[C@@H]2O [Oestradiol, oestradiol]
proliferative effect, fold greater than oestrone (breast tumour cells): 10 fold

CCCN1C(=O)CC2C3CCc4cc(OS(N)(=O)=O)ccc4C3CC[C@]2(C)C1=O (some centres unmarked) [STX213]
oestrogenicity (FIG. 2) [4]: lack of oestrogenicity

CCCN1C(=O)CC2C3CCc4cc(OS(N)(=O)=O)ccc4C3CC[C@]2(C)C1=O (some centres unmarked) [STX 213, 3Sulfamoyl-N-propyl-16,17-seco-estra-1,3,5(10)-triene-16,17-imide]
inhibition of rat liver STS (FIG. 3) (rat liver STS): inhibition of rat liver STS
IC50 [2]: 1 nM
inhibition at 0.0001 µM [2, 5]: 21.2 ± 0.8%
inhibition at 0.001 µM [2, 5]: 49.3 ± 1.2%
inhibition at 0.01 µM [2, 5]: 64.1 ± 4.6%
inhibition at 0.1 µM [2, 5]: 84.6 ± 1.3%
inhibition at 1 µM [2, 5]: 96.8 ± 0.8%
inhibition at 10 µM [2, 5]: 99.3 ± 1.1%

C[C@]12CCC3c4ccc(OS(N)(=O)=O)cc4CCC3C1CC(=O)N(Cc1cccnc1)C2=O (some centres unmarked) [STX 237, 3-Sulfamoyl-N-(3-picolyl)-16,17-seco-estra-1,3,5(10)-triene-16,17-imide]
inhibition of rat liver STS (FIG. 3) (rat liver STS): inhibition of rat liver STS
oestrogenicity (FIG. 2) [4]: lack of oestrogenicity
inhibition of STS (in words) ([2]; in vitro): Good inhibition
times more potent than EMATE ([2]; ratio of IC50 values versus EMATE): 18 times
